This note sets out measurements from patent US10112929B2, “Lactams as inhibitors of rock” (BRISTOL-MYERS SQUIBB COMPANY, priority 2015, dated 2018).

pIC50: −log10 of the molar value. Counter-ions that a name gives are not always drawn.
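Further: rho kinase enzyme reaction halted with EDTA, phospho- and non-phospho peptide separated for read-out, kinase activity inhibition derived across a dose-response series, DMSO under 2%.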

This assay deals with ROCK2 (Homo sapiens (Human), UniProt O75116). The assay can be described thus: biochemical.
ROCK2, sequence (O75116 whole entry, species assumed): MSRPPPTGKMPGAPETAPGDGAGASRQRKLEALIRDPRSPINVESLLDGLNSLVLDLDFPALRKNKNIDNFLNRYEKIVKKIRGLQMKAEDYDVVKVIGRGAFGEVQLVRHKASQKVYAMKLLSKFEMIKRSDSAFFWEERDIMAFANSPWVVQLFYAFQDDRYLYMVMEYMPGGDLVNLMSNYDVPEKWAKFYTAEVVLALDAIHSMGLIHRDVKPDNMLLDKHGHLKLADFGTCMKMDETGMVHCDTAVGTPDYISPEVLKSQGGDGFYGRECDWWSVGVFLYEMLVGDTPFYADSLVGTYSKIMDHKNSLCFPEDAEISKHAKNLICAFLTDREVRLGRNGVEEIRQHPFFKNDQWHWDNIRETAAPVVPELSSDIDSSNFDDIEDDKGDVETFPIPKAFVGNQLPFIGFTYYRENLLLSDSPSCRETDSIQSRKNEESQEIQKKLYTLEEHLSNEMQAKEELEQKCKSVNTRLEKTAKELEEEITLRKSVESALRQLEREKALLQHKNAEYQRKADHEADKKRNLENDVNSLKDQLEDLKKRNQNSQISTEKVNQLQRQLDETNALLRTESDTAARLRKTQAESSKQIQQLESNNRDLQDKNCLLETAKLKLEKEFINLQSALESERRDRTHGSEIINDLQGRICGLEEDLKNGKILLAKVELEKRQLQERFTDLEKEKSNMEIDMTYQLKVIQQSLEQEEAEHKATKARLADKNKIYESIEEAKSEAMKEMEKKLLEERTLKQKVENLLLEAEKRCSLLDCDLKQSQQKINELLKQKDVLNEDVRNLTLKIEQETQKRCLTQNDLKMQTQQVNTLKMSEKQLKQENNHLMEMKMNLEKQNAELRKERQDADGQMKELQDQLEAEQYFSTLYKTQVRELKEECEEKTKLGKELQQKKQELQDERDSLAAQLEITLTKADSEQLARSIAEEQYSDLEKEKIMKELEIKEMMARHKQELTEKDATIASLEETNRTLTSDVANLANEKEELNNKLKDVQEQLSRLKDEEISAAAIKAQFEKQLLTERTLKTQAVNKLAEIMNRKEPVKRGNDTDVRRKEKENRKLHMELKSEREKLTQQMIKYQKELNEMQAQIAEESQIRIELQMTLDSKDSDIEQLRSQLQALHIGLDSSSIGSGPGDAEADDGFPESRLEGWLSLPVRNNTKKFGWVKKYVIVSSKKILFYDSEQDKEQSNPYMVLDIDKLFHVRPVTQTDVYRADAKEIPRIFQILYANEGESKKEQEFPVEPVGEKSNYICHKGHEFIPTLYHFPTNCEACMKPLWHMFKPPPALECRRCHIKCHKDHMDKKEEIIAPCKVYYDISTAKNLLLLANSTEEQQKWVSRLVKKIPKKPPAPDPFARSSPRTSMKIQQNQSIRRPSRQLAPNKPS
With `COc1nc(N2CCC(N3CCOC[C@H]3C)C2=O)ccc1-c1cn[nH]c1` (mixture of isomers) [Example 274, 1-(6-methoxy-5-(1H-pyrazol-4-yl)pyridin-2-yl)-3-((R)-3-methylmorpholino) pyrrolidin-2-one], the negative-log IC50 (pIC50) was 7.00 to 8.00.
Turning to `COc1cccc(NC2CCN(c3ccc(-c4cn[nH]c4)c(C(F)F)c3)C2=O)c1` (single isomer, unassigned) [Example 176, 1-(3-(difluoromethyl)-4-(1H-pyrazol-4-yl)phenyl)-3-((3-methoxyphenyl)amino) pyrrolidin-2-one], the negative logarithm of the IC50 (pIC50) was 7.00 to 8.00.
In the case of `COc1ccc(F)c(NC2CCN(c3ccc(-c4cn[nH]c4)c(OC)c3)C2=O)c1` (single isomer, unassigned) [Example 147, 3-((2-fluoro-5-methoxyphenyl)amino)-1-(3-methoxy-4-(1H-pyrazol-4-yl)phenyl) pyrrolidin-2-one] it was 7.00 to 8.00; in that of `COc1nc(N2CCC(N3CCOCC3)C2=O)ccc1-c1cn[nH]c1` (racemic) [Example 273, 1-(6-methoxy-5-(1H-pyrazol-4-yl)pyridin-2-yl)-3-morpholinopyrrolidin-2-one], 7.00 to 8.00.
As for `COc1cc(NC2CCN(c3ccc(-c4cn[nH]c4)c(F)c3)C2=O)ccc1F` (single isomer, unassigned) [Example 332, 3-((4-fluoro-3-methoxyphenyl)amino)-1-(3-fluoro-4-(1H-pyrazol-4-yl)phenyl) pyrrolidin-2-one], the pIC50 is above 8.00.
Under `COc1cc(NC2CCN(c3ccc(-c4cn[nH]c4)c(C(F)(F)F)c3)C2=O)ccc1F` (single isomer, unassigned) [Example 371, 1-(4-(1H-pyrazol-4-yl)-3-(trifluoromethyl)phenyl)-3-((4-fluoro-3-methoxyphenyl)amino)pyrrolidin-2-one] stands 5.66 to 7.00; under `COc1nc(N2CCC(Nc3cc(C)nn3C)C2=O)ccc1-c1cn[nH]c1` (racemic) [Example 270, 3-((1,3-dimethyl-1H-pyrazol-5-yl)amino)-1-(6-methoxy-5-(1H-pyrazol-4-yl)pyridin-2-yl)pyrrolidin-2-one], 7.00 to 8.00; under `COc1cccc(NC2CCN(c3ccc(-c4cn[nH]c4)nc3)C2=O)c1` (single isomer, unassigned) [Example 297, 1-(6-(1H-pyrazol-4-yl)pyridin-3-yl)-3-((3-methoxyphenyl)amino)pyrrolidin-2-one], 7.00 to 8.00.
For the molecule `COc1cc(NC2CCN(c3ccc(-c4cn[nH]c4)c(C)c3)C2=O)cc(OC)c1` (single isomer, unassigned) [Example 366, 3-((3,5-dimethoxyphenyl)amino)-1-(3-methyl-4-(1H-pyrazol-4-yl)phenyl) pyrrolidin-2-one], the pIC50 was 5.66 to 7.00.
The molecule `O=C1C(Nc2cccc(OCC3CC3)c2)CCN1c1ccc(-c2cn[nH]c2)cc1` (centres unmarked) [Example 11, 1-(4-(1H-pyrazol-4-yl)phenyl)-3-((3-(cyclopropylmethoxy)phenyl)amino)pyrrolidin-2-one] showed a pIC50 above 8.00.
For `O=C1C(Nc2cccc(OC(F)F)c2)CCN1c1ccc(-c2cn[nH]c2)cn1` (single isomer, unassigned) [Example 321, 1-(5-(1H-pyrazol-4-yl)pyridin-2-yl)-3-((3-(difluoromethoxy)phenyl)amino) pyrrolidin-2-one], the pIC50 was 5.66 to 7.00.
In the case of `O=C1C(Nc2cccc(OC(F)F)c2)CCN1c1ccc(-c2cn[nH]c2)cn1` (single isomer, unassigned) [Example 322, 1-(5-(1H-pyrazol-4-yl)pyridin-2-yl)-3-((3-(difluoromethoxy)phenyl)amino) pyrrolidin-2-one] it was 7.00 to 8.00; in that of `CCc1cc(N2CCC(Nc3cccc(OC)c3)C2=O)ccc1-c1cn[nH]c1` (single isomer, unassigned) [Example 243, 1-(3-ethyl-4-(1H-pyrazol-4-yl)phenyl)-3-((3-methoxyphenyl)amino)pyrrolidin-2-one], 7.00 to 8.00; in that of `CC(=O)Nc1cccc(NC2CCN(c3ccc(-c4cn[nH]c4)cc3)C2=O)c1` (centres unmarked) [Example 391, N-(3-((1-(4-(1H-pyrazol-4-yl)phenyl)-2-oxopyrrolidin-3-yl)amino)phenyl)acetamide], 7.00 to 8.00.
Under `COc1ccc(NC2CCN(c3ccc(-c4cn[nH]c4)cc3)C2=O)cc1F` (single isomer, unassigned) [Example 13, 1-(4-(1H-Pyrazol-4-yl)phenyl)-3-((3-fluoro-4-methoxyphenyl)amino)pyrrolidin-2-one] stands 5.66 to 7.00; under `CCc1nc(N2CCC(Nc3cccc(OC)c3)C2=O)ccc1-c1cn[nH]c1` (single isomer, unassigned) [Example 313, 1-(6-ethyl-5-(1H-pyrazol-4-yl)pyridin-2-yl)-3-((3-methoxyphenyl)amino) pyrrolidin-2-one], above 8.00.
Under `COc1cccc(NC2CCN(c3ccc(-c4cn[nH]c4)cc3F)C2=O)c1` (single isomer, unassigned) [Example 328, 1-(2-fluoro-4-(1H-pyrazol-4-yl)phenyl)-3-((3-methoxyphenyl)amino)pyrrolidin-2-one] stands 7.00 to 8.00; under `O=C1C(NCc2cccc(F)c2)CCN1c1ccc(-c2cn[nH]c2)cc1` (centres unmarked) [Example 61, 1-(4-(1H-pyrazol-4-yl)phenyl)-3-((3-fluorobenzyl)amino)pyrrolidin-2-one, TFA], 5.66 to 7.00; under `COc1cc(F)cc(NC2CCN(c3cc(F)c(-c4cn[nH]c4)cc3F)C2=O)c1` (single isomer, unassigned) [Example 352, 1-(2,5-difluoro-4-(1H-pyrazol-4-yl)phenyl)-3-((3-fluoro-5-methoxyphenyl)amino)pyrrolidin-2-one], above 8.00.
`COc1nc(N2CCC(Nc3cccc(C#N)c3)C2=O)ccc1-c1cn[nH]c1` (racemic) [Example 257, 3-((1-(6-methoxy-5-(1H-pyrazol-4-yl)pyridin-2-yl)-2-oxopyrrolidin-3-yl)amino)benzonitrile] showed a pIC50 above 8.00.
`COc1nc(N2CCC(Nc3cccc(OCC4CC4)c3)C2=O)ccc1-c1cn[nH]c1` (racemic) [Example 205, 3-((3-(cyclopropylmethoxy)phenyl)amino)-1-(6-methoxy-5-(1H-pyrazol-4-yl)pyridin-2-yl)pyrrolidin-2-one] had a pIC50 above 8.00.
Under `COc1cc(N2CCC(Nc3cccc(F)c3)C2=O)ccc1-c1cn[nH]c1` (centres unmarked) [Example 72, 3-((3-fluorophenyl)amino)-1-(3-methoxy-4-(1H-pyrazol-4-yl)phenyl)pyrrolidin-2-one] stands above 8.00; under `CCOc1cc(N2CCC(Nc3cccc(OC)c3)C2=O)ccc1-c1cn[nH]c1` (single isomer, unassigned) [Example 34, 1-(3-ethoxy-4-(1H-pyrazol-4-yl)phenyl)-3-((3-methoxyphenyl)amino)pyrrolidin-2-one], above 8.00.
`COc1ccc(NC2CCN(c3ccc(-c4cn[nH]c4)c(Cl)c3)C2=O)cc1F` (single isomer, unassigned) [Example 156, 1-(3-chloro-4-(1H-pyrazol-4-yl)phenyl)-3 ((3-fluoro-4-methoxyphenyl)amino) pyrrolidin-2-one] had a pIC50 of 5.66 to 7.00.
Molecule `COc1cc(NC2CCN(c3ccc(-c4cn[nH]c4)c(OC)c3)C2=O)ccc1F` (single isomer, unassigned) [Example 154, 3-((4-fluoro-3-methoxyphenyl)amino)-1-(3-methoxy-4-(1H-pyrazol-4-yl)phenyl) pyrrolidin-2-one] had a pIC50 of 5.66 to 7.00.
As for `COc1cccc(NC2CCN(c3ccc(-c4ccnc5[nH]ccc45)cc3)C2=O)c1` (single isomer, unassigned) [Example 80, 1-(4-(1H-pyrrolo[2,3-b]pyridin-4-yl)phenyl)-3-((3-methoxyphenyl)amino) pyrrolidin-2-one], the pIC50 was 5.66 to 7.00.
As to `COc1cc(F)cc(NC2CCN(c3ccc(-c4cn[nH]c4)c(C#N)c3)C2=O)c1` (single isomer, unassigned) [Example 375, 5-(3-((3-fluoro-5-methoxyphenyl)amino)-2-oxopyrrolidin-1-yl)-2-(1H-pyrazol-4-yl)benzonitrile], the negative-log IC50 (pIC50) is 7.00 to 8.00.
Turning to `COc1cccc(NC2CCN(c3ccc(-c4ccnc(N)n4)cc3)C2=O)c1` (single isomer, unassigned) [Example 78, 1-(4-(2-aminopyrimidin-4-yl)phenyl)-3-((3-methoxyphenyl)amino)pyrrolidin-2-one], the pIC50 was 7.00 to 8.00.
`COc1cc(NC2CCN(c3ccc(-c4cn[nH]c4)cn3)C2=O)ccc1F` (single isomer, unassigned) [Example 83, 1-(5-(1H-pyrazol-4-yl)pyridin-2-yl)-3-((4-fluoro-3-methoxyphenyl)amino)pyrrolidin-2-one] gave a pIC50 of 7.00 to 8.00.
In the case of `COc1nc(N2CCC(N3CCc4ccccc4C3)C2=O)ccc1-c1cn[nH]c1` (racemic) [Example 277, 3-(3,4-dihydroisoquinolin-2(1H)-yl)-1-(6-methoxy-5-(1H-pyrazol-4-yl)pyridin-2-yl)pyrrolidin-2-one] it was 5.66 to 7.00.
Under `O=C1C(Cc2ccccc2Cl)CCN1c1ccc(-c2cn[nH]c2)cc1` (centres unmarked) [Example 95, 1-(4-(1H-pyrazol-4-yl)phenyl)-3-(2-chlorobenzyl)pyrrolidin-2-one] stands 5.66 to 7.00.
As to `COc1cccc(NC2CCN(c3ccc(-c4cn[nH]c4)c(C(O)C(F)(F)F)c3)C2=O)c1` (racemic) [Example 348, 1-(4-(1H-pyrazol-4-yl)-3-(2,2,2-trifluoro-1-hydroxyethyl)phenyl)-3-((3-methoxyphenyl)amino)pyrrolidin-2-one], the pIC50 was 5.66 to 7.00.
For the molecule `NC(=O)c1cccc(NC2CCN(c3ccc(-c4cn[nH]c4)cc3)C2=O)c1` (centres unmarked) [Example 388, 3-((1-(4-(1H-pyrazol-4-yl)phenyl)-2-oxopyrrolidin-3-yl)amino)benzamide], the pIC50 is above 8.00.
In the case of `CCc1cc(N2CCC(Nc3ccc(F)c(OCC4CC4)c3)C2=O)ncc1-c1cn[nH]c1` (racemic) [Example 213, 3-((3-(cyclopropylmethoxy)-4-fluorophenyl)amino)-1-(4-ethyl-5-(1H-pyrazol-4-yl)pyridin-2-yl)pyrrolidin-2-one] it was 5.66 to 7.00; in that of `O=C1C(Cc2c(F)cccc2F)CCN1c1ccc(-c2cn[nH]c2)cc1` (centres unmarked) [Example 94, 1-(4-(1H-pyrazol-4-yl)phenyl)-3-(2,6-difluorobenzyl)pyrrolidin-2-one], 5.66 to 7.00.

A word on the pIC50: it is −log10 of the IC50, conventionally taken in molar units. A high value points to a low IC50.
